Read-outs that look alike come from different tables or passages of the source.
Assays:
[1] = tested on: six bacteria (S. aureus, E. coli, P. aeruginosa; ATCC and clinical isolate); parameters: method as in 4 sources, ref Peel et al 2016 ||| ref Peel et al 2021 ||| ref Wang et al 2011 ||| ref Peel et al 2017; details: cited from earlier work
[2] = tested on: three fungi (Candida krusei, Candida parapsilosis, Candida albicans); parameters: method as in 4 sources, ref Peel et al 2016 ||| ref Peel et al 2021 ||| ref Wang et al 2011 ||| ref Peel et al 2017; details: cited from earlier work
[3] = tested on: six bacteria (S. aureus, E. coli, P. aeruginosa; ATCC and clinical isolate); format: cell-based; details: broth microdilution screening, phase I or II; Y/N summary over the bacteria tested; synthesized mature peptide
Experimental: Antimicrobial testing of 78 cathelicidin MPs was performed in two phases as outlined in Figure 1 . In phase I, 40 peptides (27 extant and 13 ancestral) were selected for testing based on rank (outlined above) and similarity to published marsupial cathelicidins with known antimicrobial activity ([33], [41]–[43]). These peptides were tested against nine bacteria (Staphylococcus aureus ATCC 29213 and clinical isolate, Escherichia coli ATCC 25922 and clinical isolate, Pseudomonas aeruginosa ATCC 27853 and clinical isolate, Streptococcus agalactiae ATCC 12386 and clinical isolate, Streptococcus pneumoniae ATCC 49619) and three fungi (Candida krusei ATCC 6258, Candida parapsilosis ATCC 22019, and Candida albicans clinical isolate). Details regarding these strains are available in Supplementary Table 4 . The antimicrobial activity of cathelicidins was determined as the minimum inhibitory concentration (MIC), which was the lowest concentration of cathelicidin that prevented visible bacterial or fungal growth, relative to the negative control. […] Minimum bactericidal concentration (MBC) and/or minimum fungicidal concentration (MFC) was conducted to determine microbicidal versus static action. Activity against S. aureus ATCC, E. coli ATCC, and Pseudomonas aeruginosa ATCC 27853 was examined in the presence of divalent cations to determine the impact of inhibitors.
In phase II, the remaining 38 peptides (37 extant and one ancestral) were tested against six bacteria (S. aureus ATCC and clinical isolate, E. coli ATCC and clinical isolate, and P. aeruginosa ATCC and clinical isolate). […] No further testing on phase II peptides was performed. Detailed methods for all assays are provided in subsequent sections.
Antimicrobial activity was determined using a broth microdilution susceptibility assay in 96 well polypropylene plates according to Clinical Laboratory Standards Institute guidelines M07-A and M26A as described previously ([33], [42], [43]). The bacterial and fungal isolates from humans and animals used in this study are outlined in Supplementary Table 4 . Only yeasts were included in the panel of fungi as they have been used in the susceptibility testing of eutherian ([3], [81]–[83]) and other marsupial cathelicidins previously ([33], [42], [43]). Cathelicidin mature peptides were solubilized in DMSO and serially diluted in duplicate from 128-0.25μg/mL in a final volume of 100µL. For bacteria, cathelicidins were diluted in Mueller Hinton Broth (MHB) with or without 10% lysed horse blood, and with (MH II B) or without (MHB) calcium and magnesium cations. For fungi, cathelicidins were diluted in Roswell Park Memorial Institute medium (RPMI)-1640 MOPS. Ampicillin or tetracycline were included as a positive control for Gram-positive and -negative bacteria respectively, while amphotericin B was used for fungi. A media-only negative control and growth control (no cathelicidin) were also included on each plate. Bacteria were sub-cultured on Muller Hinton agar (MHA) or sheep blood agar (BA), and fungi on Sabouraud dextrose agar (SAB), 20–24 hours prior to the test. Colonies were suspended in saline, the concentration adjusted to a 0.5 McFarland standard, and then diluted in media to a concentration of 1.0 x 10^6 cells/mL. Then, 100μL was added to each well of the cathelicidin dilution plate, giving a final inoculum density of 5 x 10^5 CFU/mL and cathelicidin concentration of 64-0.125μg/mL. Colony counts were performed on MHA/BA/SAB to confirm inoculum density. All plates were incubated at 35°C for 20–24 hours, depending on the strain.
Colonies were counted and compared to the colony count of the starting inoculum.

[4] = mature peptide, Y/N summary from earlier study, ref Peel et al 2021
[5] = mature peptide, Y/N summary from earlier study, ref Peel et al 2016
[6] = mature peptide (MP), Y/N summary, ref Peel et al 2017
[7] = mature peptide, Y/N summary from earlier study, ref Peel et al 2017
[8] = mature peptide, Y/N summary from earlier study, ref Wang et al 2011

## LFPRRRKGSNKPGKYSVLFAAKPSVGKTPHILTI [PhciCath1]
[1]; [4]
  Antibacterial (MIC <64ug/mL): N (Peel et al 2021) (Antibacterial (MIC <64ug/mL))
[2]; [4]
  Antifungal (MIC <64ug/mL): N (Peel et al 2021) (Antifungal (MIC <64ug/mL))

## KREDFLDQIIRDFRNFIYQKYRRLRDEFRKLRDILSG [SahaCath4]
[1]; [5]
  Antibacterial (MIC <64ug/mL): N (Peel et al 2016) (Antibacterial (MIC <64ug/mL))
[2]; [5]
  Antifungal (MIC <64ug/mL): N (Peel et al 2016) (Antifungal (MIC <64ug/mL))

## TLTQAHCPYFLRKKPEGEMATGGRPQETPKLLGAL [ModoCath10]
[1]; [6]
  Antibacterial (MIC <64ug/mL): N (Peel et al 2017) (Antibacterial (MIC <64ug/mL))
[2]; [6]
  Antifungal (MIC <64ug/mL): N (Peel et al 2017) (Antifungal (MIC <64ug/mL))

## GEKVKTRFIAAIEKLIDTFLP [MaeuCath3]
[1]; [7]
  Antibacterial (MIC <64ug/mL): N (Peel et al 2017) (Antibacterial (MIC <64ug/mL))
[2]; [7]
  Antifungal (MIC <64ug/mL): N (Peel et al 2017) (Antifungal (MIC <64ug/mL))

## RTFGNLIHQKYRKLLEAYRKLRDIFSG [ModoCath5]
[1]; [6]
  Antibacterial (MIC <64ug/mL): N (Peel et al 2017) (Antibacterial (MIC <64ug/mL))
[2]; [6]
  Antifungal (MIC <64ug/mL): N (Peel et al 2017) (Antifungal (MIC <64ug/mL))

## TPELFRSRRSPLPGRKKGSKRPKPGSYSVIALGKPGLKKAPYMEAL [LahiCath1]
[3]
  Antibacterial (MIC <64ug/mL): N (Antibacterial (MIC <64ug/mL))

## KRGFGKKLRKRLKKFRNSIKKRLKNFNVVIPIPLPG [MaeuCath1]
[1]; [8]
  Antibacterial (MIC <64ug/mL): Y (Wang et al 2011) (Antibacterial (MIC <64ug/mL))
[2]; [8]
  Antifungal (MIC <64ug/mL): Y (Wang et al 2011) (Antifungal (MIC <64ug/mL))

## KRGLWESLKRKATKLGDDIRNTLRNFKIKFPVPRQG [MaeuCath2*]
[1]; [8]
  Antibacterial (MIC <64ug/mL): Y (Wang et al 2011) (Antibacterial (MIC <64ug/mL))
[2]; [8]
  Antifungal (MIC <64ug/mL): Y (Wang et al 2011) (Antifungal (MIC <64ug/mL))

## KVKRGLWDTVKRKVTNLRNSIRNRATNFKLGG [MagiCath1]
[3]
  Antibacterial (MIC <64ug/mL): N (Antibacterial (MIC <64ug/mL))

## VSESISHGIPKAISAVNKLIKKKKKGATTPRVK [ModoCath6]
[1]; [6]
  Antibacterial (MIC <64ug/mL): N (Peel et al 2017) (Antibacterial (MIC <64ug/mL))
[2]; [6]
  Antifungal (MIC <64ug/mL): N (Peel et al 2017) (Antifungal (MIC <64ug/mL))

## LKKFFSSMIKKAVSKGISKGISKGIQEVDKAIKQKK [ModoCath2]
[1]; [6]
  Antibacterial (MIC <64ug/mL): N (Peel et al 2017) (Antibacterial (MIC <64ug/mL))
[2]; [6]
  Antifungal (MIC <64ug/mL): N (Peel et al 2017) (Antifungal (MIC <64ug/mL))

## GSTSSPTVRF [LahiCath2]
[3]
  Antibacterial (MIC <64ug/mL): N (Antibacterial (MIC <64ug/mL))

## TFKRKNGSRKNGHRPGGYSLIALGNKKVLKAPYMESI [SahaCath2]
[1]; [5]
  Antibacterial (MIC <64ug/mL): N (Peel et al 2016) (Antibacterial (MIC <64ug/mL))
[2]; [5]
  Antifungal (MIC <64ug/mL): N (Peel et al 2016) (Antifungal (MIC <64ug/mL))

## KEKATKFRNSIRRRVNGLKIGAADRVPGHYLA [MagiCath5]
[3]
  Antibacterial (MIC <64ug/mL): N (Antibacterial (MIC <64ug/mL))

— paper PMC12006171, “Marsupial cathelicidins: characterization, antimicrobial activity and evolution in this unique mammalian lineage” (Frontiers in Immunology, 2025)
